In experiment [1] the target is T1, ubiquitin E1 (UBA1) (Homo sapiens, UniProt P22314).
T1 sequence (P22314 2-1058): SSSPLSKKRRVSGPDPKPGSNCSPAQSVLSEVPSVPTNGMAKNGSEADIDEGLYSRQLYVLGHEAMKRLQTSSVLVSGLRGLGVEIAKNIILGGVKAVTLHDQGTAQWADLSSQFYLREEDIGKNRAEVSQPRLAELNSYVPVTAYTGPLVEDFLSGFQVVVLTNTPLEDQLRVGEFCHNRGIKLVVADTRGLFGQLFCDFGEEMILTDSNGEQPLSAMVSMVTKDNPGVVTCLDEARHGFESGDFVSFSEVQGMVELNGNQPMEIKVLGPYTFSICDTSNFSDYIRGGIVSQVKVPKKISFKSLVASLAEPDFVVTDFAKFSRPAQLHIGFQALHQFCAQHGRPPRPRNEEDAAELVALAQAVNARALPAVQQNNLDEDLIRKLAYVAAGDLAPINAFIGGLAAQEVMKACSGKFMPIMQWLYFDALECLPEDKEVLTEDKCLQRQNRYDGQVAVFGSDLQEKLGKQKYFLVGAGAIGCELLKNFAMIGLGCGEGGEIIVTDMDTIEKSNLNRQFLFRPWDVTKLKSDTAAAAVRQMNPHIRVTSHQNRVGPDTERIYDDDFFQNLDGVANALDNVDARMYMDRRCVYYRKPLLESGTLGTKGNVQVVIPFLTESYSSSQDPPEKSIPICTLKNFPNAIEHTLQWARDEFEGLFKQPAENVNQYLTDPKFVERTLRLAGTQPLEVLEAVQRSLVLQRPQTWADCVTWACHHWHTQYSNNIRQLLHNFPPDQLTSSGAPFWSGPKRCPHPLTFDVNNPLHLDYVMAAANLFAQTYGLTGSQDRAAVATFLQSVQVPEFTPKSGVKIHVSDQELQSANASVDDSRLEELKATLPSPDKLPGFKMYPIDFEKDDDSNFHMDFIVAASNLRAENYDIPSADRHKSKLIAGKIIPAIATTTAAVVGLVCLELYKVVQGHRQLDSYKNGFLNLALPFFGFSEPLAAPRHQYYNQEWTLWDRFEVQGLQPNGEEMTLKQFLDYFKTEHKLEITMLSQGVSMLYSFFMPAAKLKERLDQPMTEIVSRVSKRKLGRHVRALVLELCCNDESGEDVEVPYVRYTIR
Briefly: […]-AMP:[α-32P]-ATP exchange TLC assay. The class given is biochemical.

Experiment [2] deals with T1, ubiquitin E1 (UBA1). Briefly: E1-ubiquitin thioester gel assay with fluorescein-ubiquitin without E2. The class given is biochemical.

pIC50: −log10 of the molar value.

IC50 data for two compounds are collected here from publication PMC3339042 (2012).

As for `CCOC(=O)c1ccc(N2NC(=O)C(=Cc3ccc([N+](=O)[O-])o3)C2=O)cc1` [PYR-41], the negative logarithm of the IC50 (pIC50) at ubiquitin E1 (UBA1) [1] was 5.19.

In the case of `CCCCCCCCCCNCCSSCc1ccc(Cl)cc1` [compound 1, NSC624206], the pIC50 on ubiquitin E1 (UBA1) [2] is around 5.05.
